What was measured:
[1] = test system: ovariectomized mouse (type I osteoporosis model animal); experiment: Change of bone mass in type I osteoporosis model animal (ovariectomized mice, dosing 3 months, femur pQCT); format: in vivo
Source text: Female Slc: ddy mice of 4 weeks old (Japan SLC, Inc.) was operated with ovariectomy to use as a type I osteoporosis model animal. Also, in order to delete the affection by invasion, a group which is operated without ovariectomy (Sham operation) is set (Sham group). These were the […] model animals.
Animal bedding were changed twice a week and always to use all fresh one, CRF-1 (Oriental Yeast Co., Ltd.) is fed as feed and deionized water as drinking water were freely given. Their body weights were weighed twice a week by the end of the experiment.
Fargesin was dissolved in 30 mL of a solution (it is referred to as “TD solution”, hereinbelow) containing 4% dimethyl sulfoxide (it is referred to as “DMSO”, hereinbelow) and 4% TWEEN 80 (both were purchased from Wako Pure Chemical Industries, Ltd.) so as that a dosage amount of fargesin becomes 20 mg/kg body wt/day, or […].
After the surgical operation, the mice were adapted to the circumstances for 5 days, and then they were divided to the Sham group, the negative control, the positive control group, and the test substance administration group (6 mice per group). The ovariectomized mice were used for the negative control group, the positive control group, and the test substance administration group.
Fargesin solution was daily administrated to the ovariectomized mice in the test group at the dosage of 20 mg/kg body wt/day (it is referred to as “F20 group”, hereinbelow) or 100 mg/kg body wt/day (it is referred to as “F100 group”, hereinbelow) for 3 month p.o.
In order to study effects of fargesin on the bone, the femur, the largest long bone, was used.
The mice in each group were killed by the cervical dislocation under diethyl ether anesthesia. Their right femurs were excised with muscles, and the muscles were removed from the femur after the excision. Lengths of the excised bones from the mice in the groups were measured, and they were dipped in 70% ethanol to be fixed.
In FIG. 3, the bone was shown schematically. The long bone (tubular bone) was composed of two thick and rounded ends (epiphysis), and thin and long part between them (a shaft). The bone extends to longitudinal direction, depending on the growth of a plate-shape epiphyseal cartilage (a growth plate) between the epiphysis and the shaft. The region of 1 mm proximal side from the A position for a measurement was set to that from 1 mm proximal region (epiphysis) from the distal growth plate as decided as the measurement region.
The bone density was measured by using the peripheral quantitative computed tomography (pQCT, XCT Research SA+, Stratec Medizintechnik GmbH, Merk Ltd) (FIG. 3B). The measurement was performed under the conditions: a diameter of 90 mm, a voxel size of 0.12 mm, a CT speed of 10 mm/sec, and a block number of 1. Bone mineral content (mg/mm), bone density (mg/cm^3), and cross section of the bone (mm^2) of the entire of tomographic images (whole bone area) were calculated.
Next, the area of the cancellous bone was extracted (peel mode 20), and then the bone mineral amount (mg/mm), the section of the bone (mm^2), and the bone density (mg/cm^3) were calculated. Further to the cortical bone, the bone mineral amount (mg/mm), the bone density (mg/cm^3), the section of the bone (mm^2), a bone thickness (mm), the periosteum perimeter of the cortical bone (mm), and the endosteum perimeter of the cortical bone (mm) were calculated.
Based on the bone diameter and the bone density measured by the pQCT, SSI was calculated. SSI is composed of Polar SSI (torsion strength in polar coordination), X-axis SSI (strength in X axis, three-point bending strength), and Y-axis SSI (Y axis strength, three-point lateral bending strength), and it is expressed by the following general equation.
Wherein, Z is the coefficient of the cross section (mm^3), CBD is the bone density of the cortical bone (mg/cm^3), and ND is the physiological bone density (1200 mg/cm^3). The coefficient Z is shown as the following equation.

[2] = test system: ovariectomized mouse (OVX mouse); experiment: Bone formation in ovariectomized mouse (OVX mouse), dosing after bone resorption induction period, femur pQCT; format: in vivo; settings: 80 μg/kg/day s.c.
Procedure: Four-week-old female Slc; ddy mice (Japan SLC, Inc.) were purchased, and they were divided into 8 groups without acclimate keeping (6 mice per group). They were anesthetized by using 50 mg/kg of pentobarbital to be ovariectomized (it is referred to as “OVX” herein below) or to have Sham operation (it is referred to as “Sham” herein below) under the anesthesia which is given by intraperitoneal administration of 50 mg/kg of Somnopentyl (pentobarbital sodium).
From the second day of the ovariectomy (or Sham operation), each group was maintained under the condition of 12 hour light/dark cycle, 23±3 degree centigrade as the room temperature, and humidity 55±5% for 2 months as the bone resorption induction period. The animal bedding was exchanged twice a week and all fresh bedding was used at all times. CRF-1 (Oriental Yeast Co., Ltd.) as the feed and deionized water as drinking water were freely given.
After two month period from the test start, the bone resorption induction period, the test substance were given to each group at the amount shown in the following Table 7 for 3 month.
Ninety % of MeOH fraction (Shin-i) obtained in Example 1 and Fargesin (may refer to “Far” thereafter) were respectively dissolved into TD solution at the concentration shown in Table 7, and then they were administrated per os.
Human PTH (1-34) (herein below, it is sometimes referred to as “hPTH (1-34)”) were dissolved in distilled water at the concentration of 80 μg/kg/day, and it was administrated subcutaneously.
After 3 month from the administration start, the mice belonging to all of the groups were weighed. They were anesthetized by using diethylether, and were collected their blood from their hearts, and then they were died. Then, organs such as the uterus, the white adipose tissue (WAT), the brown adipose tissue (BAT), the liver, the spleen, and both left and right lower extremities were removed. The left and right lower extremities were separated into the femurs and the tibias, and they were stored in 70% EtOH under the room temperature.
The muscles were removed from the obtained femur (right), and then its bone density and the like were measured by using pQCT employed in Example 1 under the following conditions.
Recognition of contour (CONTMODE): 2 (auto search of ROI)
Recognition method of cancellous bone: Surface & Area
Ration of cancellous bone area to all of the cross section areas: 35%
CORTMODE used in CORTBD: 1* * Voxels not larger than the standard value for distinguishing the cortical bone from the cancellous bone (threshold: threshold) were omitted. Each tissue weight was also measured.
TH value used in CORTBD: 690
Among the all data of cancellous bone density obtained from pQCT, both of the highest and the lowest data were deleted to obtain the Median. As to the other parameters were treated as the same as this, the graph was made with N=6. Statistical analysis was performed by using the Dennett's two-sided t test.

TRACP5b = experiment: Serum TRACP5b of OVX mice (bone metabolism marker); format: in vivo, mouse; settings: 80 μg/kg/day s.c.; compared to the OVX group
Procedure: All obtained blood from the heart under diethyl ether anesthesia at dissection was stored at 4 degree centigrade for 24 hours. Then, the blood was centrifuged at 3,000 rpm (4,000×g) for 15 minutes to separate the sera.
According to the protocol of Mouse TRAP™ Assay (Immuno-diagnostic Systems Ltd, the United of Kingdom), TRACP5b in the obtained sera was determined.

[3] = OVX mice, B100 group: 100 μg/kg body wt/day i.p.
[4] = OVX mice, B100 group: 100 μg/kg body wt/day i.p. (text prints F100 group)
[5] = OVX mice, B100 group: 100 μg/kg body wt/day i.p., right femur, pQCT
[6] = OVX mice, 3 months dosing after 2-month induction

Molecule: C[C@]12CC[C@@H]3c4ccc(O)cc4CC[C@H]3[C@@H]1CC[C@@H]2O [β-estradiol, reference compound]
- Average body weight during mouse growth ([1]; B100 group: 100 μg/kg body wt/day i.p., versus NC group): lower than that of NC group mice
- Cortical bone Bone density [1, 3]: 867.475 ± 13.724 mg/mL
- Cortical bone Bone thickness [1, 3]: 0.365 ± 0.038 mm
- Cortical bone adventitia diameter [1, 3]: 7.9895 ± 0.096 mm
- Cortical bone lining membrane diameter [1, 3]: 5.699 ± 0.229 mm
- Polar axis bone strength (Table 3) [1, 3]: 1.946 ± 0.107 mm^3
- bone mineral mass, cancellous bone [1, 3]: 0.725±0.110 mg/mm
- bone mineral mass, whole bone [1, 3]: 3.325±0.203 mg/mm
- bone mineral mass, cortical bone [1, 4]: 2.163±0.230 mg/mm
- cross section area of the bone, cortical bone [1, 4]: 2.4825±0.230 mm^2
- Polar axis strength (polar coordinates strength) ([1]; OVX mice, B100 group: 100 μg/kg body wt/day i.p., SSI from pQCT): 1.376±0.088 mm^3
- Bone density Cancellous bone [1, 5]: 399.050 ± 53.851 mg/mL
- Bone density whole bone [1, 5]: 652.025 ± 28.386 mg/mL

Molecule: hPTH(1-34): Human PTH (1-34), dissolved in distilled water, administrated subcutaneously [reference compound]
- Bone density of cancellous bone, relative value ([2]; 5M Sham = 100): 76.1
- Bone density of cortical bone, relative value ([2]; 5M Sham = 100): 92.2
- Bone density of the whole bones, relative value ([2]; 5M Sham = 100): 86.0
- Bone strength (polar coordinates torsion strength) ([2]; compared to Control OVX group): significantly increased
- Bone density of cancellous bone [2, 6]: 88.83 ± 30.90 mg/cm^2
- Bone density of cortical bone [2, 6]: 906.50 ± 32.19 mg/cm^2
- Bone thickness of cortical bone [2, 6]: 0.22 ± 0.03 mm
- Cross section area of cortical bone [2, 6]: 1.69 ± 0.25 mm^2
- Perimeter of cortical bone adventitia [2, 6]: 8.37 ± 0.26 mm
- Perimeter of cortical bone lining membrane [2, 6]: 6.98 ± 0.34 mm
- Bone density of the whole bones ([2]; OVX mice, 3 months dosing after 2-month induction, right femur, pQCT): 452.25 ± 49.00 mg/cm^2
- level of TRACP5b in the sera (TRACP5b): did not show major alteration
